Reference: US6924282B2, “Sodium salt of an HIV integrase inhibitor” (Merck & Co., Inc., priority 2001, dated 2005)

Legend:
[1] = oral absorption and pharmacokinetics in animal models; format: in vivo; conditions: compared to crystalline Compound A per se
Description: The present invention is directed to a pharmaceutically acceptable alkali metal salt of an HIV integrase inhibitor.

[2] = oral bioavailability and pharmacokinetics in rats; format: in vivo; conditions: relative to amorphous and crystalline Compound A
[3] = oral bioavailability and pharmacokinetics in dogs; format: in vivo; conditions: relative to amorphous and crystalline Compound A
[4] = target: recombinant integrase (HIV integrase) (Human immunodeficiency virus type 1 group M subtype B, UniProt P04585); conditions: strand transfer assay of Example 193 of WO 02/30930
Description: The strand transfer assay is described in Example 193 of WO 02/30930.

[5] = system: acute HIV infection of T-lymphoid cells; assay: assay for the inhibition of acute HIV infection of T-lymphoid cells; format: cell-based; conditions: in accordance with Vacca et al., PNAS 1994, 91: 4096-4100
Description: Compound A is an inhibitor of HIV integrase.

Row | Structure (SMILES) | oral absorption [1] | pharmacokinetics [1] | oral bioavailability [2] | pharmacokinetics (e.g., Cmax and AUC) [2] | oral bioavailability [3] | pharmacokinetics (e.g., Cmax and AUC) [3] | inhibition of integrase strand transfer [4] | inhibition of acute HIV infection of T-lymphoid cells [5]
1 | O=C(NCc1ccc(F)cc1)c1nc(N2CCCCS2(=O)=O)c2cccnc2c1[O-].[Na+] [crystalline sodium salt of Compound A, Sodium salt of 5-(1,1-Dioxido-1,2-thiazinan-2-yl)-N-(4-fluorobenzyl)-8-hydroxy-1,6-naphthyridine-7-carboxamide] | superior oral absorption | improved pharmacokinetics | superior oral bioavailability | improved pharmacokinetics | superior oral bioavailability | improved pharmacokinetics | – | –
2 | O=C(NCc1ccc(F)cc1)c1nc(N2CCCCS2(=O)=O)c2cccnc2c1O [Compound A, 5-(1,1-dioxido-1,2-thiazinan-2-yl)-N-(4-fluorobenzyl)-8-hydroxy-1,6-naphthyridine-7-carboxamide] | – | – | – | – | – | – | potent inhibitor | active
